Laboratory results reported in ChEMBL document CHEMBL4715772, “A facile stereoselective synthesis of dispiro-indeno pyrrolidine/pyrrolothiazole-thiochroman hybrids and evaluation of their antimycobacterial, anticancer and AchE inhibitory activities” (Bioorg Med Chem, 2016).
≈ marks a conversion by molar mass, not a printed value. Calls of active or inactive are those of the source. No cut-off for these calls is given here.

Tests used:
[1] = test system: Mycobacterium tuberculosis; experiment: Antimycobacterial activity against Mycobacterium tuberculosis H37Rv assessed as inhibition of bacterial growth by microdilution alamar blue broth assay; type: functional, organism-based
[2] = Cytotoxicity against African green monkey Vero cells assessed as cell viability after 72 hrs by MTT assay; type: cell-based; details: chlorocebus sabaeus, read-out: MNCC
[3] = test system: Mycobacterium tuberculosis; experiment: Antimycobacterial activity against Mycobacterium tuberculosis H37Rv assessed as inhibition of bacterial growth at 3.198 mM by microdilution alamar blue broth assay; type: functional, organism-based
[4] = test system: Mycobacterium tuberculosis; experiment: Antimycobacterial activity against Mycobacterium tuberculosis H37Rv assessed as inhibition of bacterial growth at 0.17 mM by microdilution alamar blue broth assay relative to control; type: functional

For `NCC[C@H](O)C(=O)N[C@@H]1C[C@H](N)[C@@H](O[C@H]2O[C@H](CN)[C@@H](O)[C@H](O)[C@H]2O)[C@H](O)[C@H]1O[C@H]1O[C@H](CO)[C@@H](O)[C@H](N)[C@H]1O` [AMIKACIN], the IC90 [1] was 80 nM, the MIC [1] was 0.16 µM (≈ 0.0937 µg/mL) and the MNTC at 72 h [2] was > 6.25 µg/mL. The Activity [3] was “Active” and the inhibition at 170 µM [4] was 30%.
